Columns and labels:
[1] = test system: RT112/84 cell line (FGFR3-fusion); assay: Cancer cell line cell viability assay (Cell Titer-Glo), 72 hr; type: cell-based; conditions: Homo sapiens, RT112/84, RT112/84 cell line (FGFR3-fusion)
Procedure, shortened: (§1)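 Luminescent ATP read-out (Cell Titer-Glo 2.0) after compound exposure, normalised to DMSO-only wells. Dosing: 9 concentrations, 4-fold steps, top 3 μM, triplicates. IC50 derived by log(inhibitor) vs. response 4-parameter fit.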

[2] = test system: KG-1 cell line (FGFR 1-fusion); assay: as above; type: cell-based; conditions: Homo sapiens, KG-1, KG-1 cell line (FGFR1-fusion)
Procedure, shortened: as §1

[3] = test system: KATO-III cell line (FGFR2 amplification); assay: as above; type: cell-based; conditions: Homo sapiens, KATO III
Procedure, shortened: as §1

[4] = test system: HuH7 cell line (FGF19 amplification); assay: Cancer cell line cell viability assay (Cell Titer-Glo), 120 hr; type: cell-based; conditions: Homo sapiens, Huh-7
Procedure, shortened: as §1

[5] = test system: MDA-MB-453 cell line (FGFR4-Y367C); assay: as above; type: cell-based; conditions: Homo sapiens
Procedure, shortened: as §1

FGFR1 = molecular target: T1, FGFR1 (Homo sapiens, UniProt P11362); assay: Kinase binding assay (kinase-tagged T7 phage, affinity beads, qPCR), Kd; conditions: read-out: FGFR1 (Kd nM)
T1 construct: made in house; host or cells: E. coli (BL21-derived), T7 phage
Procedure, shortened: (§2)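 Competition binding; kinase-tagged T7 phage lysate vs immobilised biotinylated ligand on streptavidin beads, 0.9% DMSO final. 11-pt 3-fold dilutions, 3 DMSO controls. qPCR of eluted kinase; Kd by Hill fit, slope −1.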

FGFR3 = molecular target: T2, FGFR3 (Homo sapiens, UniProt P22607); assay: as above; conditions: read-out: FGFR3 (Kd nM)
T2 construct: made in house; host or cells: E. coli (BL21-derived), T7 phage
Procedure, shortened: as §2

FGFR3 (V555M) = molecular target: T3, FGFR3 (V555M) (Homo sapiens, UniProt P22607, V555M); assay: as above; conditions: V555M mutant; read-out: FGFR3 (V555M) (Kd nM)
T3 construct: made in house; host or cells: E. coli (BL21-derived), T7 phage
Procedure, shortened: as §2

FGFR2 = molecular target: T4, FGFR2 (Homo sapiens, UniProt P21802); assay: as above; conditions: read-out: FGFR2 (Kd nM)
T4 construct: made in house; host or cells: E. coli (BL21-derived), T7 phage
Procedure, shortened: as §2

FGFR4 = molecular target: T5, FGFR4 (Homo sapiens, UniProt P22455); assay: as above; conditions: read-out: FGFR4 (Kd nM)
T5 construct: made in house; host or cells: E. coli (BL21-derived), T7 phage
Procedure, shortened: as §2

T3 sequence (P22607 23-806 V555M): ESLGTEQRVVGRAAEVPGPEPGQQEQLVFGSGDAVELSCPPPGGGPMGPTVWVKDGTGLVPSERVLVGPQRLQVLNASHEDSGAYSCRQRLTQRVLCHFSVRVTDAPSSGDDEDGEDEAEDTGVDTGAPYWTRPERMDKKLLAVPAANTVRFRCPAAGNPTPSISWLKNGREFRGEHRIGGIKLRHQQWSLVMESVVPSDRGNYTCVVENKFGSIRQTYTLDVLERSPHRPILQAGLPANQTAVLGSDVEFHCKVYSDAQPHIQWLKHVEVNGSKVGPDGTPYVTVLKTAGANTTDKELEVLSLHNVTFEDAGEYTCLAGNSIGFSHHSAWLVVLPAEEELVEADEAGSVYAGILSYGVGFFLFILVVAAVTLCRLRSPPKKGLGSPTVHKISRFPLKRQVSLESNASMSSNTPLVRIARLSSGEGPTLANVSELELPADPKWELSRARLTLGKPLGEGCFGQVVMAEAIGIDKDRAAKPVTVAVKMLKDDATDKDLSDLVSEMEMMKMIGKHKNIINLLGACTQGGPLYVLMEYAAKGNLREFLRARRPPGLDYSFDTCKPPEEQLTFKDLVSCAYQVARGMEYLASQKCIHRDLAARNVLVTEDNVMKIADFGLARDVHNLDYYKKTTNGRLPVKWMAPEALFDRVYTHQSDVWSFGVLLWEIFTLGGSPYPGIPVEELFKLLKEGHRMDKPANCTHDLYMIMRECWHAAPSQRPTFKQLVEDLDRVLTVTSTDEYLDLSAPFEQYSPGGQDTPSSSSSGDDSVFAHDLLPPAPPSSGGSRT
T2 sequence (P22607 23-806): as the sequence (P22607 23-806 V555M) above, with M533V counted along it
T4 sequence (P21802 22-821): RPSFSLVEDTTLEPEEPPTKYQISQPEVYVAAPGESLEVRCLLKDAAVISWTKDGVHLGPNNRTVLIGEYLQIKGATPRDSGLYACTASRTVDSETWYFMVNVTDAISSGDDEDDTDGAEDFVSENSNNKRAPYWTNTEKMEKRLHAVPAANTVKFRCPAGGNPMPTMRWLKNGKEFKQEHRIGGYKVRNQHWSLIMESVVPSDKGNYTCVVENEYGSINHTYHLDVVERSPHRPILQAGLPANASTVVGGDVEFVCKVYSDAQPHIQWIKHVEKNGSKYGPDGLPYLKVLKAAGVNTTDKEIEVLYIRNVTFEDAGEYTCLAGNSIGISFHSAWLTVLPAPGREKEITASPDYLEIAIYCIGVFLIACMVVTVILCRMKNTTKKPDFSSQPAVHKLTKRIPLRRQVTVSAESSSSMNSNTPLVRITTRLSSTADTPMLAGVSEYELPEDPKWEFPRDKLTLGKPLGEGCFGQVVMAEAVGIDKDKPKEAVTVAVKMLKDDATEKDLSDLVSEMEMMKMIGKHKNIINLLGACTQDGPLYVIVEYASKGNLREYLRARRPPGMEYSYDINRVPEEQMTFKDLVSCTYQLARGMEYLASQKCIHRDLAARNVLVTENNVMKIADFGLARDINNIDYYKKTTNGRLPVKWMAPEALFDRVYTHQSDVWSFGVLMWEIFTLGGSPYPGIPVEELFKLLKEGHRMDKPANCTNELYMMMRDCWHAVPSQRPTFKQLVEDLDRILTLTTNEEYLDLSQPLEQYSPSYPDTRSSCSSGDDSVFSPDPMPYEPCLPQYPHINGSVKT
T1 sequence (P11362 22-822): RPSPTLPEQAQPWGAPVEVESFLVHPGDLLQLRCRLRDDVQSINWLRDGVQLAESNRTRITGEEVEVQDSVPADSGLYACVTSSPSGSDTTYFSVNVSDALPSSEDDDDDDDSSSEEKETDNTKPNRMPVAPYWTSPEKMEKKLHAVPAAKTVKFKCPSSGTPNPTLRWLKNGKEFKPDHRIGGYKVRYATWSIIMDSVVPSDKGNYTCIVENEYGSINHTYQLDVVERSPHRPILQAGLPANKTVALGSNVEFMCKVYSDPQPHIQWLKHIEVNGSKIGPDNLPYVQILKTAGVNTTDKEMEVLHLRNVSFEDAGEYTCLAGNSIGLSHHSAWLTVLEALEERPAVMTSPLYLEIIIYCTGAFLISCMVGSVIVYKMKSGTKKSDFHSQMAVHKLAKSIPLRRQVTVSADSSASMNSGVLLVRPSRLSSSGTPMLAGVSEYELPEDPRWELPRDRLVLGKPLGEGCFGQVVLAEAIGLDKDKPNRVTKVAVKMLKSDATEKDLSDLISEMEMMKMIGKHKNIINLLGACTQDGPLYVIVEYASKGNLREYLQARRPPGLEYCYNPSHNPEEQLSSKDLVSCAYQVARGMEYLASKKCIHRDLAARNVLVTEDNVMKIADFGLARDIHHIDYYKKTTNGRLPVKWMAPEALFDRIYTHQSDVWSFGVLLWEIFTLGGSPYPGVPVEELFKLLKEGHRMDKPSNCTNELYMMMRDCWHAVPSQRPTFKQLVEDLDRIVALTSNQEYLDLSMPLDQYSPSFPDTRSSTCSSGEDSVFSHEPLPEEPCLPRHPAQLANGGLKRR
T5 sequence (P22455 22-802): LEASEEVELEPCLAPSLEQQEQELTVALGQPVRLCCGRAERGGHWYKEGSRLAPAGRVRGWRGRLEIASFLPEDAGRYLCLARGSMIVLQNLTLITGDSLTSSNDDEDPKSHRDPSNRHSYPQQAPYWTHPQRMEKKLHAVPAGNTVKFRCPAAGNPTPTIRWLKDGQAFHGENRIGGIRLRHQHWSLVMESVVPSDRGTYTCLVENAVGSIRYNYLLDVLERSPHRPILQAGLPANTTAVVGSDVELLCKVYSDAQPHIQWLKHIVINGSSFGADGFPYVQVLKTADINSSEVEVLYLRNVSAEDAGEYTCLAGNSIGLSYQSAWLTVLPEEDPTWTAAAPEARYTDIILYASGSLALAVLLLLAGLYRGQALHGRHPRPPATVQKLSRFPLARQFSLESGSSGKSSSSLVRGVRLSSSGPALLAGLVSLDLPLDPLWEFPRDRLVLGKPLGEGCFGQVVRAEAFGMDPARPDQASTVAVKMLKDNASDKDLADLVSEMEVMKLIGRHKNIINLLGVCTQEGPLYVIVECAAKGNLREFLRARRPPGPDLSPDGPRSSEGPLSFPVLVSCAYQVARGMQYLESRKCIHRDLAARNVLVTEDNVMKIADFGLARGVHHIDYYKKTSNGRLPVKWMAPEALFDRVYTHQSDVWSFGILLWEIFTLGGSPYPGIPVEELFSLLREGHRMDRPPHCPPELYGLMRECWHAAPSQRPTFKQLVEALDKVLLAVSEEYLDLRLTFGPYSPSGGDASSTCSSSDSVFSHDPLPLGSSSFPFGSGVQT

Row | IC50 [1] | IC50 [2] | IC50 [3] | IC50 [4] | IC50 [5] | Kd (FGFR1) | Kd (FGFR3) | Kd (FGFR3 (V555M)) | Kd (FGFR2) | Kd (FGFR4) | SMILES
1 | 0.1 to 50 nM | 50 to 200 nM | 0.1 to 50 nM | 0.1 to 50 nM | 50 to 200 nM | 1 to 50 nM | 1 to 50 nM |  |  |  | CC(C)NC1(CC#N)CN(c2ncc(-c3n[nH]c4ccc(O[C@H](C)c5c(Cl)cncc5Cl)cc34)cc2F)C1 [Example 150, (R)-2-(1-(5-(5-(1-(3,5-dichloropyridin-4-yl)ethoxy)-1H-indazol-3-yl)-3-fluoropyridin-2-yl)-3-(isopropylamino)azetidin-3-yl)acetonitrile]
2 | 0.1 to 50 nM | 50 to 200 nM | 0.1 to 50 nM |  | 50 to 200 nM | 1 to 50 nM | 1 to 50 nM | 1 to 50 nM | 1 to 50 nM | 1 to 50 nM | C[C@@H](Oc1ccc2[nH]nc(-c3ccc(N4CC(C)(CS(C)(=O)=O)C4)nc3)c2c1)c1c(Cl)cncc1Cl [Example 181, (R)-5-(1-(3,5-dichloropyridin-4-yl)ethoxy)-3-(6-(3-methyl-3-((methylsulfonyl)-methyl)azetidin-1-yl)pyridin-3-yl)-1H-indazole]
3 | 0.1 to 50 nM | 200 to 1000 nM | 0.1 to 50 nM |  | 0.1 to 50 nM | 1 to 50 nM | 1 to 50 nM | 1 to 50 nM | 1 to 50 nM | 1 to 50 nM | C[C@@H](Oc1ccc2[nH]nc(-c3cnc(N4CC(C)(NCP(C)(C)=O)C4)c(F)c3)c2c1)c1c(Cl)cncc1Cl [Example 182, 1-[5-[5-[(1R)-1-(3,5-dichloro-4-pyridyl)ethoxy]-1H-indazol-3-yl]-3-fluoro-2-pyridyl]-N-(dimethylphosphorylmethyl)-3-methyl-azetidin-3-amine]
4 | > 1000 nM | > 1000 nM | > 1000 nM |  | > 1000 nM | 300 to 1000 nM | 50 to 300 nM | 1 to 50 nM | > 1000 nM | 50 to 300 nM | C[C@H](Oc1ccc2[nH]nc(-c3cnc(N4CC(C)(CS(C)(=O)=O)C4)c(F)c3)c2c1)c1c(Cl)cncc1Cl [Example 200, (S)-5-(1-(3,5-dichloropyridin-4-yl)ethoxy)-3-(5-fluoro-6-(3-methyl-3-((methyl-sulfonyl)meth-yl)azetidin-1-yl)pyridin-3-yl)-1H-indazole]
5 | > 1000 nM | > 1000 nM | 200 to 1000 nM |  | > 1000 nM | 50 to 300 nM | 50 to 300 nM | 1 to 50 nM | 300 to 1000 nM | 50 to 300 nM | CNC1(C)CN(c2ncc(-c3n[nH]c4ccc(O[C@@H](C)c5c(Cl)cncc5Cl)cc34)cc2F)C1 [Example 205, 1-[5-[5-[(1S)-1-(3,5-dichloro-4-pyridyl)ethoxy]-1H-indazol-3-yl]-3-fluoro-2-pyridyl]-N,3-dimethyl-azetidin-3-amine]
6 | 0.1 to 50 nM | 50 to 200 nM | 0.1 to 50 nM |  | 50 to 200 nM | 1 to 50 nM | 1 to 50 nM | 1 to 50 nM | 1 to 50 nM | 1 to 50 nM | C[C@@H](Oc1ccc2[nH]nc(-c3cnc(N4C[C@@H](CS(C)(=O)=O)[C@@H]4C)c(F)c3)c2c1)c1c(Cl)cncc1Cl [Example 206, 5-((R)-1-(3,5-dichloropyridin-4-yl)ethoxy)-3-(5-fluoro-6-((2S,3R)-2-methyl-3-((methylsulfonyl)methyl)azetidin-1-yl)pyridin-3-yl)-1H-indazole]
7 | 0.1 to 50 nM | 50 to 200 nM | 50 to 200 nM |  | 50 to 200 nM | 1 to 50 nM | 1 to 50 nM | 1 to 50 nM | 1 to 50 nM | 1 to 50 nM | C[C@@H]1[C@@H](CS(C)(=O)=O)CN1c1ncc(-c2n[nH]c3ccc(O[C@H](C)c4c(Cl)cncc4Cl)cc23)cc1F [Example 207, 5-((R)-1-(3,5-dichloropyridin-4-yl)ethoxy)-3-(5-fluoro-6-((2R,3S)-2-methyl-3-((methylsulfonyl)methyl)azetidin-1-yl)pyridin-3-yl)-1H-indazole]
8 | 0.1 to 50 nM | 0.1 to 50 nM | 0.1 to 50 nM |  | 50 to 200 nM | 1 to 50 nM | 1 to 50 nM | 1 to 50 nM | 1 to 50 nM | 1 to 50 nM | C[C@@H](Oc1ccc2[nH]nc(-c3ccc(N4CC(C)(NCC5CC5)C4)nc3)c2c1)c1c(Cl)cncc1Cl [Example 219, (R)-N-(cyclo-propylmethyl)-1-(5-(5-(1-(3,5-dichloropyridin-4-yl)ethoxy)-1H-indazol-3-yl)pyridin-2-yl)-3-methylazetidin-3-amine]
9 | 0.1 to 50 nM | 50 to 200 nM | 0.1 to 50 nM |  | 50 to 200 nM | 1 to 50 nM | 1 to 50 nM | 1 to 50 nM | 1 to 50 nM | 1 to 50 nM | CC(=O)N1CCN(C2(C)CN(c3ncc(-c4n[nH]c5ccc(O[C@H](C)c6c(Cl)cncc6Cl)cc45)cc3F)C2)CC1 [Example 220, 1-[4-[1-[5-[5-[(1R)-1-(3,5-dichloro-4-pyridyl)ethoxy]-1H-indazol-3-yl]-3-fluoro-2-pyridyl]-3-methyl-azetidin-3-yl]piperazin-1-yl]ethanone]
10 | 0.1 to 50 nM | 50 to 200 nM | 0.1 to 50 nM |  | 50 to 200 nM | 1 to 50 nM | 1 to 50 nM | 1 to 50 nM | 1 to 50 nM | 1 to 50 nM | CC(C)CNC1(C)CN(c2ccc(-c3n[nH]c4ccc(O[C@H](C)c5c(Cl)cncc5Cl)cc34)cn2)C1 [Example 224, (R)-1-(5-(5-(1-(3,5-dichloropyridin-4-yl)ethoxy)-1H-indazol-3-yl)pyridin-2-yl)-N-isobutyl-3-methylazetidin-3-amine]
11 | 0.1 to 50 nM | 50 to 200 nM | 0.1 to 50 nM |  | 50 to 200 nM | 1 to 50 nM | 1 to 50 nM | 1 to 50 nM | 1 to 50 nM | 1 to 50 nM | CC[C@@H](C)NC1(C)CN(c2ccc(-c3n[nH]c4ccc(O[C@H](C)c5c(Cl)cncc5Cl)cc34)cn2)C1 [Example 225, 1-[5-[5-[(1R)-1-(3,5-dichloro-4-pyridyl)ethoxy]-1H-indazol-3-yl]-2-pyridyl]-3-methyl-N-[(1R)-1-meth-ylpropyl]azetidin-3-amine]
12 | 0.1 to 50 nM | 50 to 200 nM | 0.1 to 50 nM |  | 50 to 200 nM | 1 to 50 nM | 1 to 50 nM | 1 to 50 nM | 1 to 50 nM | 1 to 50 nM | CCCNC1(C)CN(c2ccc(-c3n[nH]c4ccc(O[C@H](C)c5c(Cl)cncc5Cl)cc34)cn2)C1 [Example 227, 1-[5-[5-[(1R)-1-(3,5-dichloro-4-pyridyl)ethoxy]-1H-indazol-3-yl]-2-pyridyl]-3-methyl-N-propyl-azetidin-3-amine]
13 | 0.1 to 50 nM | 50 to 200 nM | 0.1 to 50 nM |  | 50 to 200 nM | 1 to 50 nM | 1 to 50 nM | 1 to 50 nM | 1 to 50 nM | 1 to 50 nM | CC[C@H](C)NC1(C)CN(c2ccc(-c3n[nH]c4ccc(O[C@H](C)c5c(Cl)cncc5Cl)cc34)cn2)C1 [Example 228, 1-[5-[5-[(1R)-1-(3,5-dichloro-4-pyridyl)ethoxy]-1H-indazol-3-yl]-2-pyridyl]-3-methyl-N-[(1S)-1-meth-ylpropyl]azetidin-3-amine]
14 | 0.1 to 50 nM | 50 to 200 nM | 0.1 to 50 nM |  | 50 to 200 nM | 1 to 50 nM | 1 to 50 nM | 1 to 50 nM | 1 to 50 nM | 1 to 50 nM | C[C@@H](Oc1ccc2[nH]nc(-c3ccc(N4CC(C)(N5C[C@@H]6C[C@H]5CO6)C4)nc3)c2c1)c1c(Cl)cncc1Cl [Example 229, (1S,4S)-5-(1-(5-(5-((R)-1-(3,5-dichloropyridin-4-yl)ethoxy)-1H-indazol-3-yl)pyridin-2-yl)-3-methylazetidin-3-yl)-2-oxa-5-aza-bicyclo[2.2.1]hep-tane]
15 | 0.1 to 50 nM | 0.1 to 50 nM | 0.1 to 50 nM |  | 50 to 200 nM | 1 to 50 nM | 1 to 50 nM | 1 to 50 nM | 1 to 50 nM | 1 to 50 nM | C[C@@H](Oc1ccc2[nH]nc(-c3ccc(N4CC(C)(NCC5CC5)C4)nc3F)c2c1)c1c(Cl)cncc1Cl [Example 237, (R)—N-(cyclopropylmethyl)-1-(5-(5-(1-(3,5-dichloropyridin-4-yl)ethoxy)-1H-indazol-3-yl)-6-fluoropyridin-2-yl)-3-methylazetidin-3-amine]

Reference: patent US20250368666A1, “INDAZOLE COMPOUNDS” (TYRA BIOSCIENCES, INC., priority 2022, published 2025)
